In PMC8597046, “Use of Mixture Dosing and Nonlinear Mixed Effect Modeling of Eight Environmental Contaminants in Rabbits to Improve Extrapolation Value of Toxicokinetic Data” (Environmental Health Perspectives, 2021):

Legend:
[1] = TK assay, oral mixture dosing: serum concentrations and noncompartmental analysis (sparse data); conditions: female, rabbit, in vivo, po; for concentration at 24 h / concentration at 23.98 h / concentration at 168 h / concentration at 0.57 h / concentration at 672.02 h / concentration at 0.55 h / concentration at 671.96 h / concentration at 72 h / concentration at 71.96 h / concentration at 168.02 h: Serum concentration; for concentration at 24 h / concentration at 23.98 h / concentration at 72 h / concentration at 71.96 h: oral, MEHP after oral DEHP; for concentration at 23.98 h: rabbit 15, 23.98 h; for concentration at 0.57 h: rabbit 22, 0.57 h; for concentration at 671.96 h: rabbit 23, 671.96 h; for concentration at 71.96 h: rabbit 18, 71.96 h; for concentration at 168.02 h: rabbit 19, 168.02 h
Procedure, shortened: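 Female New Zealand white rabbits (10-wk, 2.37±0.14kg) got the compound mixture IV via ear-vein catheter or orally into the mouth; serum sampled 15 min to 28 d, 3 (or 6 at 30 min) rabbits per time. Sparse-data noncompartmental analysis gave AUC (linear trapezoidal), CL or CL_F, half-life and F.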

[2] = TK assay, intravenous mixture dosing: serum concentrations and noncompartmental analysis (sparse data); conditions: female, rabbit, in vivo, iv; for AUC(0-inf) / Cmax / MRT / clearance / half-life / Vd: New Zealand white (INRA 1777 line); for Vd: IV mixture dosing, NCA, n=12; for concentration at 24.03 h / concentration at 24 h / concentration at 72 h / concentration at 72.03 h / concentration at 71.97 h / concentration at 168 h / concentration at 167.92 h / concentration at 0.67 h / concentration at 671.96 h / concentration at 0.77 h / concentration at 672 h / concentration at 0.6 h / concentration at 671.83 h: New Zealand white, Serum concentration; for concentration at 24.03 h: rabbit 1, 24.03 h; for concentration at 72 h: rabbit 4, 72.00 h; for concentration at 72.03 h: rabbit 5, 72.03 h; for concentration at 71.97 h: rabbit 6, 71.97 h; for concentration at 167.92 h: rabbit 8, 167.92 h; for concentration at 0.67 h: rabbit 10, 0.67 h; for concentration at 671.96 h: rabbit 10, 671.96 h; for concentration at 0.77 h: rabbit 11, 0.77 h; for concentration at 672 h: rabbit 11, 672.00 h; for concentration at 0.6 h: rabbit 12, 0.60 h; for concentration at 671.83 h: rabbit 12, 671.83 h
Procedure, shortened: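 Female New Zealand white rabbits received a compound mixture IV via ear-vein catheter; serum sampled sparsely (3 rabbits/time point) from 15 min to 28 d. Noncompartmental sparse-data analysis on mean profiles: linear-trapezoidal AUC, CL as dose/AUC0−inf, half-life from λZ, MRT and VSS.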

[3] = rodents; ref Staskal et al. 2005; cited from earlier work
[4] = Estimation of loading and daily maintenance doses and NLME model simulations; design: species or system female rabbits; conditions: oral; for Computed maintenance dose: daily; for Computed maintenance dose / Computed loading dose: scaled to the targeted CSS of Table 6; for Daily maintenance dose: to maintain serum concentration of 1 ng/mL, daily CL×Css/F; for Daily maintenance dose / Loading dose: DEHP dose for MEHP in serum; for Loading dose: to rapidly attain serum concentration of 1 ng/mL, Vss×Css/F
Procedure, shortened: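 Loading and daily maintenance doses computed from TK equations for a nominal CSS of 1 ng/mL, then scaled to oral doses for female rabbits. NLME model simulated central and peripheral compartment amounts over repeated daily maintenance dosing.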

[5] = New Zealand white (INRA 1777 line)
[6] = New Zealand white (INRA 1777 line), rabbit 13, […]
[7] = New Zealand white (INRA 1777 line), rabbit 14, […]
[8] = New Zealand white (INRA 1777 line), rabbit 21, 168.00 h
[9] = New Zealand white (INRA 1777 line), rabbit 22, 672.02 h
[10] = New Zealand white (INRA 1777 line), rabbit 23, 0.55 h
[11] = New Zealand white (INRA 1777 line), rabbit 24, 0.55 h
[12] = New Zealand white (INRA 1777 line), rabbit 24, 672.02 h
[13] = New Zealand white, rabbit 16, 72.00 h
[14] = New Zealand white, rabbit 17, 72.00 h
[15] = New Zealand white, rabbit 20, 168.00 h

`Brc1ccc(Oc2ccc(Br)cc2Br)c(Br)c1` [BDE-47, 2,2′,4,4′-tetrabromodiphenyl ether] showed an AUC(0-inf) [1, 5] of 79.5 µM·h, a CL/F [1, 5] of 5 mL/min/kg and a Cmax [1, 5] of 640 nM. The MRT [1, 5] was 10.8 days, the Tmax [1, 5] was 1 days and the Vd/F [1, 5] was 116 L/kg. The bioavailability [1, 5] was 78%, the half-life [1, 5] was 11.1 days and the concentration at 24 h [1, 6] was 770 nM. It also gave a concentration at 24 h [1, 7] of 510 nM, a concentration at 23.98 h [1, 5] of 300 nM and a concentration at 168 h [1, 8] of 110 nM. The concentration at 0.57 h [1, 5] was 12 nM, the concentration at 672.02 h [1, 9] was 17 nM and the concentration at 0.55 h [1, 10] was 33 nM. For the same molecule, the concentration at 671.96 h [1, 5] was 27 nM, the concentration at 0.55 h [1, 11] was 110 nM and the concentration at 672.02 h [1, 12] was 30 nM. For the same molecule, the concentration at 72 h [1, 13] was 160 nM, the concentration at 72 h [1, 14] was 210 nM and the concentration at 71.96 h ([1]; New Zealand white) was 300 nM. The concentration at 168.02 h ([1]; New Zealand white) was 92 nM, the concentration at 168 h [1, 15] was 120 nM and the AUC(0-inf) [2] was 42.2 µM·h. It also gave a Cmax [2] of 1820 nM, an MRT [2] of 3.62 days and a clearance [2] of 3.83 mL/min/kg. It also gave a half-life [2] of 6.75 days, a Vd ([2]; VSS) of 20.3 L/kg and a Vd ([2]; VZ) of 54.8 L/kg. For the same molecule, the concentration at 24.03 h [2] was 120 nM, the concentration at 24 h ([2]; rabbit 2, […]) was 140 nM and the concentration at 24 h ([2]; rabbit 3, […]) was 130 nM. It also gave a concentration at 72 h [2] of 56 nM, a concentration at 72.03 h [2] of 63 nM and a concentration at 71.97 h [2] of 42 nM. It also gave a concentration at 168 h ([2]; rabbit 7, 168.00 h) of 31 nM, a concentration at 167.92 h [2] of 25 nM and a concentration at 168 h ([2]; rabbit 9, 168.00 h) of 37 nM. It also gave a concentration at 0.67 h [2] of 1990 nM, a concentration at 671.96 h [2] of 3.9 nM and a concentration at 0.77 h [2] of 1770 nM. For the same molecule, the concentration at 672 h [2] was 5.3 nM, the concentration at 0.6 h [2] was 1820 nM and the concentration at 671.83 h [2] was 2.8 nM. For the same molecule, the Intestinal absorption [3] was 82%, the Computed maintenance dose [4] was 1.3 µg/kg and the Computed loading dose [4] was 7.5 µg/kg. The Daily maintenance dose [4] was 8.4 µg/kg and the Loading dose [4] was 47 µg/kg.

Molecule `Cl[C@H]1[C@H](Cl)[C@@H](Cl)[C@H](Cl)[C@@H](Cl)[C@@H]1Cl` [β-HCH, β-hexachlorocyclohexane] has an AUC(0-inf) [1, 5] of 67.1 µM·h, a CL/F [1, 5] of 1.73 mL/min/kg and a Cmax [1, 5] of 297 nM. For the same molecule, the MRT [1, 5] was 15.4 days, the Tmax [1, 5] was 1 days and the Vd/F [1, 5] was 47 L/kg. For the same molecule, the bioavailability [1, 5] was 55%, the half-life [1, 5] was 13.1 days and the concentration at 24 h [1, 6] was 390 nM. For the same molecule, the concentration at 24 h [1, 7] was 200 nM, the concentration at 23.98 h [1, 5] was 190 nM and the concentration at 168 h [1, 8] was 99 nM. For the same molecule, the concentration at 0.57 h [1, 5] was 29 nM, the concentration at 672.02 h [1, 9] was 13 nM and the concentration at 0.55 h [1, 10] was 73 nM. The concentration at 671.96 h [1, 5] was 30 nM, the concentration at 0.55 h [1, 11] was 250 nM and the concentration at 672.02 h [1, 12] was 43 nM. For the same molecule, the concentration at 72 h [1, 13] was 94 nM, the concentration at 72 h [1, 14] was 160 nM and the concentration at 71.96 h ([1]; New Zealand white) was 180 nM. It also gave a concentration at 168.02 h ([1]; New Zealand white) of 88 nM, a concentration at 168 h [1, 15] of 89 nM and an AUC(0-inf) [2] of 26.7 µM·h. It also gave a Cmax [2] of 320 nM, an MRT [2] of 22.6 days and a clearance [2] of 0.95 mL/min/kg. It also gave a half-life [2] of 13.8 days, a Vd ([2]; VSS) of 30.9 L/kg and a Vd ([2]; VZ) of 27.1 L/kg. The concentration at 24.03 h [2] was 62 nM, the concentration at 24 h ([2]; rabbit 2, […]) was 50 nM and the concentration at 24 h ([2]; rabbit 3, […]) was 76 nM. For the same molecule, the concentration at 72 h [2] was 36 nM, the concentration at 72.03 h [2] was 34 nM and the concentration at 71.97 h [2] was 29 nM. It also gave a concentration at 168 h ([2]; rabbit 7, 168.00 h) of 20 nM, a concentration at 167.92 h [2] of 18 nM and a concentration at 168 h ([2]; rabbit 9, 168.00 h) of 25 nM. It also gave a concentration at 0.67 h [2] of 320 nM, a concentration at 671.96 h [2] of 6.5 nM and a concentration at 0.77 h [2] of 250 nM. The concentration at 672 h [2] was 21 nM, the concentration at 0.6 h [2] was 270 nM and the concentration at 671.83 h [2] was 9.6 nM. For the same molecule, the Computed maintenance dose [4] was 11 µg/kg, the Computed loading dose [4] was 163 µg/kg and the Daily maintenance dose [4] was 2.4 µg/kg. For the same molecule, the Loading dose [4] was 37 µg/kg.
